As a reminder, the IC50 is the concentration needed to halve the response being measured.

Data set [1] has as its target mouse PKA catalytic subunit (Cα) (Mus musculus, UniProt P05132). The data set can be described thus: In vitro PKA-C activity assay. Conditions: read-out: IC50 for PKA-C activity; recombinant SMO pCT; apparent IC50; 15–30 nM Cα, 260 μM Kemptide, 100 μM ATP, 10 mM MgCl2, 100 mM MOPS pH 7; 3 min preincubation, room temperature; two independent experiments. It counts as biochemical.

The next data set deals with GLI. The data set is described as follows: GLI transcriptional reporter assay in Smo−/− MEFs. Format: cell-based, mouse. Conditions: ShhN conditioned medium, 2 days, n = three. (A reporter such as luciferase makes a cellular process visible.)
For another data set, the system named is smo−/− zebrafish. The data set is described as follows: Slow muscle specification in smo−/− zebrafish embryos. Format: in vivo, Danio rerio. The conditions noted are these: mRNA injection; Prox1 / Engrailed staining; <26 hours post-fertilization.
The next data set addresses mouse PKA-Cα (Mus musculus, UniProt P05132). The data set can be described thus: Surface plasmon resonance. The conditions noted are these: SPR.
The subject of data set [2] is PKA-Cα. The data set is described as follows: BRET analysis of SMO / PKA-C interactions in HEK293 cells. It counts as cell-based, mouse. Conditions: nanoluc-tagged SMO657 with YFP-tagged PKA-Cα, mean, n = three. Background: BRET reads energy transfer from a luciferase to a nearby fluorophore.
In data set [3] the test system is PKA-Cα. The data set can be described thus: BRET analysis of SMO / PKA-C interactions in IMCD3 cells. Format: cell-based, mouse. Conditions: PKA-C expressed at near-endogenous levels, n = three.
Data set [4] relates to PKA-Cα. The data set can be described thus: SMO / PKA-C colocalization in cilia of IMCD3 cells. It counts as cell-based. The conditions noted are these: WRR mutation, SAG21k 1 μM overnight.
The next data set has as its target human PKA-Cα (Homo sapiens, UniProt P17612). The data set can be described thus: Fluorescence polarization, FAM-labeled SMO peptide binding to human PKA-Cα. The conditions noted are these: human or mouse PKA-Cα.
Data set [5] concerns SMO. The data set is described as follows: Immunofluorescence of SMO and endogenous PKA-C in NIH3T3 cilia.
Data set [6] concerns SMO. The conditions noted are these: inverse agonist; cited from earlier work.

Where a SMILES comes first, the peptide text is derived from it. The star is where a group is joined. 5FAM = O=C1OC2(c3ccc(O)cc3Oc3cc(O)ccc32)c2ccc(C(=O)*)cc21; PEG3 = NCCOCCOCCOCCC(=O)O

Regarding “recombinant SMO pCT: residues 565–657 of mouse SMO, cleaved from MBP-His8-SUMO tags”, the IC50 in data set [1] turned out to be 10.9 µM. Consider “wild-type SMO: full-length wild-type SMO construct”, for which the GLI transcriptional response result in the data set with GLI was “strong GLI transcriptional responses to Hh ligands”. In the data set with smo−/− zebrafish, the “muscle specification in smo−/− zebrafish” value is reported as “restored correct muscle specification”.

With “SMO pCT: recombinant protein encompassing the entire 93 amino-acid SMO pCT, GST-tagged for SPR”, the “ATP/MgCl2 dependence of PKA-C binding” value with mouse PKA-Cα (ATP and MgCl2 omitted, PKA-Cα […]) is “depended strictly on ATP and MgCl2”. Besides, the “binding to PKA-Cα” value with mouse PKA-Cα (mouse PKA-Cα, ATP and MgCl2 present) is “bound specifically to mouse PKA-Cα”.

Turning to “wild-type SMO657: nanoluc-tagged truncated SMO construct”, in the data set on PKA-Cα [2], the “BRET with PKA-C” value was “strong, specific BRET”. With “SMO WRR: full-length SMO with WRR mutation (SADVSSAAAQHVTKMVAAAGAILPQDVSVTPVATPVPP)”, the “interaction with PKA-C (BRET)” value in the data set with PKA-Cα [3] is “prevented interaction between SMO and PKA-C”. Also, the GLI transcriptional response entry in the data set on GLI is “almost completely devoid of activity”. In the data set on PKA-Cα [4], the “colocalization with PKA-C in cilia” value is “dramatically reduced colocalization in cilia”. Regarding `CC[C@H](C)[C@H](NC(=O)[C@H](C)NC(=O)CNC(=O)[C@H](CCCNC(=N)N)NC(=O)[C@H](CCCNC(=N)N)NC(=O)[C@H](C)NC(=O)[C@@H](NC(=O)[C@H](CCSC)NC(=O)[C@H](CCCCN)NC(=O)[C@@H](NC(=O)[C@@H](NC(=O)[C@H](Cc1c[nH]cn1)NC(=O)[C@H](CCC(N)=O)NC(=O)[C@H](C)NC(=O)[C@H](Cc1c[nH]c2ccccc12)NC(=O)[C@H](C)NC(=O)[C@H](CO)NC(=O)[C@H](CO)NC(=O)[C@@H](NC(=O)[C@H](CC(=O)O)NC(=O)[C@H](C)NC(=O)[C@H](CO)NC(=O)CCOCCOCCOCCNC(=O)c1ccc2c(c1)C(=O)OC21c2ccc(O)cc2Oc2cc(O)ccc21)C(C)C)C(C)C)[C@@H](C)O)C(C)C)C(=O)N[C@@H](CC(C)C)C(=O)N1CCC[C@H]1C(=O)O` ({5FAM-PEG3}-SADVSSAWAQHVTKMVARRGAILP-OH), on human PKA-Cα, the “ATP dependence of interaction with PKA-Cα” value is “strongly ATP-dependent”. Take `CC1=C2C[C@H]3[C@@H](CC=C4C[C@@H](O)CC[C@@]43C)[C@@H]2CC[C@]12O[C@@H]1C[C@H](C)CN[C@H]1[C@H]2C` [cyclopamine]: the “SMO colocalization with endogenous PKA-C in primary cilium” value in the data set on SMO [5] (NIH3T3, cyclopamine 5 μM, 8 hours) is “did not occur”. In the data set on SMO [6], the “effect on SMO (accumulation in cilia, conformation)” value is “induces SMO to accumulate in cilia but traps it in an inactive conformation”. Turning to `CNC1CCC(N(Cc2cccc(-c3ccncc3)c2)C(=O)c2sc3ccccc3c2Cl)CC1` (stereo not shown) [SAG], the “accumulation of SMO in cilia” value with SMO [5] (NIH3T3 stably expressing SMO-V5-TurboID, SAG 100 nM, anti-V5) is on record as “dramatic accumulation of SMO in cilia”.

The values are drawn from publication PMC9696579 (Nature structural & molecular biology, 2022).
